Laboratory results from patent publication US20220260565A1, “METHODS OF TREATING AND DIAGNOSING INFLAMMATORY BOWEL DISEASE” (priority 2018, published 2022).

Tests used:
[1] = test system: bacterial microbiota; assay: Bacterial microbiota in stool of antifungal-treated mice (16S rDNA sequencing); type: in vivo; details: 3 weeks in drinking water, stool DNA
Description: (§1) FIG. 24A-24D Antifungal treatment affects bacterial and fungal microbiota in mice. Mice were treated or not for 3 weeks with fluconazole or amphotericin B in their drinking water, DNA was isolated from stool, and fungal and bacterial communities were assessed by sequencing ITS1 and 16S rDNA regions respectively. […] D) Examples of bacteria (families) regulated upon antifungal treatment. * p<0.05; ** p<0.01; *** p<0.001; LDA scores from LEfSe analysis.
(§2) We will investigate the impact of antifungal therapy on the mucosa-associated microbiota in patients by examining samples collected before and after anti-fungal therapy. We will investigate the association between the mycobiota detected by high-throughput ITS (fungal) and 16S (bacterial) rDNA sequencing as well as targeted quantitative PCR in colonic washes, biopsies, and fecal samples. In preliminary studies in mice, we have observed that oral treatment with antifungal drugs (we have tried several) alters the fungal microbiota in fecal samples, which is, of course, not surprising (FIGS. 24A&C), but it also affects the bacterial microbiota (FIGS. 24B&D). The interrelationship between bacterial and fungal microbiota and the susceptibility of these communities to manipulation by antifungal drugs in mice is being further studied in other funded work. […]

[2] = test system: fungal microbiota; assay: Fungal microbiota in stool of antifungal-treated mice (ITS1 sequencing); type: in vivo; details: 3 weeks in drinking water, stool DNA
Description: as §1, §2

[3] = test system: acute colitis induced by DSS in wild type and Clec7a−/− mice; assay: DSS colitis in wild type and Dectin-1-deficient (Clec7a-/-) mice treated with fluconazole; type: in vivo; details: DSS in drinking water
Excerpt: DSS colitis in Dectin-1-deficient mice: The inventors examined whether defective immune recognition of fungi could have an impact on colitis and looked at the effects of inducing acute colitis in mice lacking Dectin-1 (Clec7a−/−). The inventors co-housed wild type and Clec7a−/− mice for two weeks before inducing acute colitis by administration of 3% DSS in the drinking water. […] Consistent with the histology, the inventors detected augmented production of IFN-γ and IL-17 in mesenteric lymph nodes (MLNs) and colons from Clec7a−/− mice (FIG. 12D, 12E). Furthermore, in colons of Clec7a−/− mice the inventors detected increased message for TNF-α, IL-23p19 and IL-17a, cytokines previously associated with intestinal inflammation (Not shown).

[4] = test system: Malassezia; assay: Malassezia levels in stool of mice after oral fluconazole (rDNA sequencing); type: in vivo; details: oral fluconazole for 1 week
Description: FIG. 22 depicts Efficacy of azole drug on colonic Malassezia in mice. Mice were treated with oral fluconazole for 1 week, and Malassezia levels were measured in the stool by rDNA sequencing.

[5] = test system: Malassezia spp.; details: cited from earlier work
[6] = in vivo; cited from earlier work
[7] = from package insert; cited from earlier work

SMILES: C[C@@H]1[C@H](O)[C@@H](C)/C=C/C=C/C=C/C=C/C=C/C=C/C=C/[C@H](O[C@@H]2O[C@H](C)[C@@H](O)[C@H](N)[C@@H]2O)C[C@@H]2O[C@](O)(C[C@@H](O)C[C@@H](O)[C@H](O)CC[C@@H](O)C[C@@H](O)CC(=O)O[C@H]1C)C[C@H](O)[C@H]2C(=O)O [amphotericin B]
- effect on bacterial microbiota (16S sequencing, LEfSe) [1]: changes in bacterial microbiota
- effect on fungal microbiota (ITS1 sequencing) [2]: alter the fungal community

SMILES: OC(Cn1cncn1)(Cn1cncn1)c1ccc(F)cc1F [fluconazole]
- effect on colitis ([3]; Dectin-1 knockout (Clec7a−/−) animals): abrogated colitis
- effect on colitis ([3]; wild type animals): little or no effect
- Malassezia levels in the stool [4]: depletion of Malassezia from the stool
- effect on bacterial microbiota (16S sequencing, LEfSe) [1]: changes in bacterial microbiota
- effect on fungal microbiota (ITS1 sequencing) [2]: alter the fungal community

SMILES: CC[C@@H]([C@H](C)O)n1ncn(-c2ccc(N3CCN(c4ccc(OC[C@@H]5CO[C@@](Cn6cncn6)(c6ccc(F)cc6F)C5)cc4)CC3)cc2)c1=O [posaconazole]
- MIC against most Malassezia spp. [5]: low
- concentration in feces [6]: high
- first pass effect [6]: low
- common adverse events in clinical trials [7]: diarrhea, dyspepsia, nausea, fever, headache, coughing, and hypokalemia
